These results are taken from paper PMC9948161 (ACS Omega, 2023).

The structures appear in SMILES notation.

The test system of assay [1] is MCF-7 breast cancer cell line. The assay is described as follows: MTT in vitro antiproliferative assay. In kind it is cell-based. Particulars: Homo sapiens, MCF7, 24 h, read-out: IC50 on the human MCF-7 cell line.
Another assay deals with VEGFR2 kinase (Homo sapiens, UniProt P35968). The assay is described as follows: biochemical.
The test system of assay [2] is MCF-7 cells. The assay is described as follows: Cell cycle analysis by propidium iodide flow cytometry. In kind it is cell-based, human. As to conditions: MCF-7, 1.29 μM, 24 h; untreated control 2.4. (A flow cytometer gives signals particle by particle.)
For assay [3], the system named is MCF-7 cells. The assay is described as follows: Wound healing. Particulars: MCF-7, IC50 concentration. In kind it is cell-based, human.
The test system of assay [4] is human red blood cell (HRBC) membrane. Description: HRBC membrane stabilization assay. In kind it is cell-based. As to conditions: Erythrocyte, read-out: percentage of inhibition of hemolysis (HRBC membrane stabilization).

VEGFR2 kinase, sequence (P35968 20-1356): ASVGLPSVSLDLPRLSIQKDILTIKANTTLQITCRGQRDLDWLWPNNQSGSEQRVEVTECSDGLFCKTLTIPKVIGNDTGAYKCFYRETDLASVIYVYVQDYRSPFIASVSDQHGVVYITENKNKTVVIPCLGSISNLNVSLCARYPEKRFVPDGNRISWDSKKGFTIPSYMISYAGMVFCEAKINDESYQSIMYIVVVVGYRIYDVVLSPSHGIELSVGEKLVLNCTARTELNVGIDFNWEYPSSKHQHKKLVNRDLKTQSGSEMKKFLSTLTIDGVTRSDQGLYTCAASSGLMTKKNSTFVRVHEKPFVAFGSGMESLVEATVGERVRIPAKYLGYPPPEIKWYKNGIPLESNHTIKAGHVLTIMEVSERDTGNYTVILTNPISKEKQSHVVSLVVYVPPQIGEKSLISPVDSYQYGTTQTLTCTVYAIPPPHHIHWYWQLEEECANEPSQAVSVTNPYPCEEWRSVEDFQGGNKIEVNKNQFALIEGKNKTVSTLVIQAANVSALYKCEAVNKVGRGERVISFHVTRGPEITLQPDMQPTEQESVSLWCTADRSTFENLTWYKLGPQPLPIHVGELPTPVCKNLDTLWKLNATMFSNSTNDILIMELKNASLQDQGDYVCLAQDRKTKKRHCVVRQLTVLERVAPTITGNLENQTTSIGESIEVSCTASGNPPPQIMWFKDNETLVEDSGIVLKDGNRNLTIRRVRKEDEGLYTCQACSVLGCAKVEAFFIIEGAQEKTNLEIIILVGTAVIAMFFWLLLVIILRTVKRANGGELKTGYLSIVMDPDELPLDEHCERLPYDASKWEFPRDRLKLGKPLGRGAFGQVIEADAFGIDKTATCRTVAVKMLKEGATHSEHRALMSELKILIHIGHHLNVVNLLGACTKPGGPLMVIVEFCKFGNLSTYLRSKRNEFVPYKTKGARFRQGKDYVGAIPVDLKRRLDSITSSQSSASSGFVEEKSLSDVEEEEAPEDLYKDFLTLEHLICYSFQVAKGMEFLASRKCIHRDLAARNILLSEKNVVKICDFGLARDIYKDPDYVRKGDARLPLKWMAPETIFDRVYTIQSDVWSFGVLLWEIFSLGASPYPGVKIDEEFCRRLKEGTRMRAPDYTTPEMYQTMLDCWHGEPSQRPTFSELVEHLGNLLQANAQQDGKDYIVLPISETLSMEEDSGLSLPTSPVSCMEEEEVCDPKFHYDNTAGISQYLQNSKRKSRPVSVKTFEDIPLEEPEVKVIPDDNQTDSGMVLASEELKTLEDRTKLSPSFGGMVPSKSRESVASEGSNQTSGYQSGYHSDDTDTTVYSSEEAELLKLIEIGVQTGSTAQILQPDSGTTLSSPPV

In general, IC50 refers to the point on the concentration scale where inhibition reaches its midpoint. For `O=c1[nH]cc(F)c(=O)[nH]1` [5-fluorouracil, reference compound], the IC50 in assay [1] came out at 7790 nM.

As to `O=C(CC1Sc2ccccc2NC1=O)c1ccc(F)cc1` (stereo not shown) [Compound 2a, 2-(2-(4-Fluorophenyl)-2-oxoethyl)-2H-benzo[b][1,4]thiazin-3(4H)-one], the values for the IC50 (in assay [1]; against VEGFR2 kinase) were 2260 nM and 74.1 nM, respectively.

Turning to `O=C(CC1Sc2ccccc2NC1=O)c1ccc(F)c(F)c1` (stereo not shown) [Compound 2b, 2-(2-(3,4-Difluorophenyl)-2-oxoethyl)-2H-benzo[b][1,4]thiazin-3(4H)-one], the values for the half-inhibitory concentration (IC50) (in assay [1]; at VEGFR2 kinase) were 1370 nM and 59.3 nM, respectively.

Broadly, the inhibition is how much of the control response was suppressed. In the case of `O=C(CC1Sc2ccccc2NC1=O)c1ccc(Cl)cc1` (stereo not shown) [Compound 2c, 2-(2-(4-Chlorophenyl)-2-oxoethyl)-2H-benzo[b] [1, 4]thiazin-3(4H)-one], the half-maximal inhibitory concentration (IC50) in assay [1] is 1290 nM. Moreover, in the assay on MCF-7 cells [2], the “population of cells at G2/M phase” value is reported as 1%. Moreover, the “wound healing percentage (percentage wound healing area) at 0 h” value in the assay with MCF-7 cells [3] (0 h, control 66.42 ± 1.20) is 66.63 ± 0.66%. For the same molecule, the “reduction in the area of the wound (percentage wound healing area) after 24 h” value with MCF-7 cells [3] (24 h, control 43.23 ± 1.71) amounted to 61.98 ± 1.44%. In assay [4], the inhibition at 125 µg/mL worked out at 31.6%, the inhibition at 250 µg/mL was 49.8% and the inhibition at 500 µg/mL was 75.4%.

Consider `O=C(CC1Sc2ccccc2NC1=O)c1ccc(Br)cc1` (stereo not shown) [Compound 2d, 2-(2-(4-Bromophenyl)-2-oxoethyl)-2H-benzo[b][1,4]thiazin-3(4H)-one], for which, in assay [1], the IC50 stood at 2300 nM.

On to `O=C(CC1Sc2ccccc2NC1=O)c1ccc(Cl)c(Cl)c1` (stereo not shown) [Compound 2e, 2-(2-(3,4-Dichlorophenyl)-2-oxoethyl)-2H-benzo[b][1,4]thiazin-3(4H)-one], for which the half-maximal inhibitory concentration (IC50) came out at 4980 nM in assay [1] and 135 nM at VEGFR2 kinase.

Regarding `Cc1ccc(C(=O)CC2Sc3ccccc3NC2=O)cc1Cl` (stereo not shown) [Compound 2f, 2-(2-(3-Chloro-4-methylphenyl)-2-oxoethyl)-2H-benzo[b][1,4]thiazin-3(4H)-one], the figures for the IC50 (in assay [1]; on VEGFR2 kinase) were 3700 nM and 97.2 nM, respectively.

Take `CCOC(=O)CN1C(=O)C(CC(=O)c2ccc(F)cc2)Sc2ccccc21` (stereo not shown) [Compound 3a, Ethyl 2-(2-(2-(4-Fluorophenyl)-2-oxoethyl)-3-oxo-2H-benzo[b][1,4]thiazin-4(3H)-yl)acetate]: the IC50 in assay [1] was 5190 nM; at VEGFR2 kinase, 632 nM.

Turning to `CCOC(=O)CN1C(=O)C(CC(=O)c2ccc(F)c(F)c2)Sc2ccccc21` (stereo not shown) [Compound 3b, Ethyl 2-(2-(2-(3,4-Difluorophenyl)-2-oxoethyl)-3-oxo-2H-benzo [b][1,4]thiazin-4 (3H)-yl)acetate], the results for the IC50 (in assay [1]; on VEGFR2 kinase) were 4500 nM and 236 nM, respectively.

As for `CCOC(=O)CN1C(=O)C(CC(=O)c2ccc(Cl)cc2)Sc2ccccc21` (stereo not shown) [Compound 3c, Ethyl 2-(2-(2-(4-Chlorophenyl)-2-oxoethyl)-3-oxo-2H-benzo[b][1,4]thiazin-4(3H)-yl)acetate], the IC50 in assay [1] was found to be 4390 nM. In addition, in assay [4], the inhibition at 125 µg/mL was determined as 27.4% and the inhibition at 500 µg/mL was determined as 53.6%.

Consider `CCOC(=O)CN1C(=O)C(CC(=O)c2ccc(Br)cc2)Sc2ccccc21` (stereo not shown) [Compound 3d, Ethyl 2-(2-(2-(4-Bromophenyl)-2-oxoethyl)-3-oxo-2H-benzo[b][1,4]thiazin-4(3H)-yl)acetate], for which the IC50 in assay [1] turned out to be 3310 nM.
